According to the supplement of paper PMC13380429:

Columns and labels:
Settings in all cases: 72 h
Calu-3 [1] = experiment: cell viability relative to DMSO; higher = less toxic
HepG2 [2] = experiment: as above
Caco-2 [3] = experiment: as above
Calu-3 [4] = experiment: relative viability EC50 (midpoint between 100% and the lowest measured viability); higher = less toxic
HepG2 [5] = experiment: as above
Caco-2 [6] = experiment: as above
Calu-3 [7] = experiment: drug sensitivity score (DSS) for viability; higher = more toxic; extreme values may be limits of the assay
HepG2 [8] = experiment: as above
Caco-2 [9] = experiment: as above
U2OS [10] = experiment: cell viability relative to DMSO; higher = less toxic
Vero E6 [11] = experiment: as above
U2OS [12] = experiment: relative viability EC50 (midpoint between 100% and the lowest measured viability); higher = less toxic
U2OS [13] = experiment: drug sensitivity score (DSS) for viability; higher = more toxic; extreme values may be limits of the assay
Vero E6 [14] = experiment: as above
Vero E6 [15] = experiment: relative viability EC50 (midpoint between 100% and the lowest measured viability); higher = less toxic

Structure (SMILES)	cell viability (Calu-3 [1]; 1 nM) [%]	cell viability (Calu-3 [1]; 10 nM) [%]	cell viability (Calu-3 [1]; 100 nM) [%]	cell viability (Calu-3 [1]; 1000 nM) [%]	cell viability (Calu-3 [1]; 10000 nM) [%]	cell viability (HepG2 [2]; 1 nM) [%]	cell viability (HepG2 [2]; 10 nM) [%]	cell viability (HepG2 [2]; 100 nM) [%]	cell viability (HepG2 [2]; 1000 nM) [%]	cell viability (HepG2 [2]; 10000 nM) [%]	cell viability (Caco-2 [3]; 1 nM) [%]	cell viability (Caco-2 [3]; 10 nM) [%]	cell viability (Caco-2 [3]; 100 nM) [%]	cell viability (Caco-2 [3]; 1000 nM) [%]	cell viability (Caco-2 [3]; 10000 nM) [%]	relative viability EC50 (Calu-3 [4]) [nM]	relative viability EC50 (HepG2 [5]) [nM]	relative viability EC50 (Caco-2 [6]) [nM]	drug sensitivity score (Calu-3 [7])	drug sensitivity score (HepG2 [8])	drug sensitivity score (Caco-2 [9])	cell viability (U2OS [10]; 1 nM) [%]	cell viability (U2OS [10]; 10 nM) [%]	cell viability (U2OS [10]; 100 nM) [%]	cell viability (U2OS [10]; 1000 nM) [%]	cell viability (U2OS [10]; 10000 nM) [%]	cell viability (Vero E6 [11]; 1 nM) [%]	cell viability (Vero E6 [11]; 10 nM) [%]	cell viability (Vero E6 [11]; 100 nM) [%]	cell viability (Vero E6 [11]; 1000 nM) [%]	cell viability (Vero E6 [11]; 10000 nM) [%]	relative viability EC50 (U2OS [12]) [nM]	drug sensitivity score (U2OS [13])	drug sensitivity score (Vero E6 [14])	relative viability EC50 (Vero E6 [15]) [nM]
OCCn1cc(-c2ccc3c(c2)CC/C3=N\O)c(-c2ccncc2)n1 [GDC-0879]	102	94.5	95.2	107	104	90.6	100	87.2	74.3	25	98.8	89.4	94.1	101	104	> 10000	1450	> 10000	0	7	0	–	–	–	–	–	–	–	–	–	–	–	–	–	–
C#Cc1cccc(Nc2ncnc3cc(OCCOC)c(OCCO)cc23)c1 [OSI-420]	115	103	73.8	48.6	47	110	102	100	104	76.7	106	101	101	86.9	76.6	101	> 10000	> 10000	13.1	0.6	2.3	96.7	99.8	97.6	94.2	85.1	103	105	98.2	79	65.1	> 10000	0.3	4	–
Cc1ncc(C)n2nc([C@@H]3C[C@H]3c3nc4c5cccnc5ccn4c3C)nc12 [PDE10-IN-1]	106	98	105	114	117	98.7	105	96.1	115	98.1	–	–	–	–	–	> 10000	> 10000	–	0	0	–	98.6	95.5	100	95.9	97.9	93.5	98.2	99.6	99.3	105	> 10000	0	0	> 10000
Cn1c(Nc2ccc(C(F)(F)F)cc2)nc2cc(Oc3ccnc(-c4ncc(C(F)(F)F)[nH]4)c3)ccc21 [RAF265]	98	91.2	94	70.9	62.2	92.1	94.7	80	44.5	13.2	100	98.3	81.8	66.3	28.8	–	435	721	5.6	13.1	8.8	94.9	102	95.3	87.3	46.5	102	99.7	99.8	77.9	51.6	1590	4.9	5.4	–
